These results are taken from patent publication US11891386B2, “Indole compounds and their use” (ARIAGEN, INC., priority 2017, dated 2024).

The test system of data set [1] is IL-21 secretion from human CD4+ T cells. Nature of the data set: Suppression of IL-21 secretion by activated Th17 cells (ALPHALISA). Format: cell-based. Conditions: for IC50: 120 h, human CD4+ T cells under Th17 stimulation, 5 days; for potency in suppressing IL-21 secretion, in words: human CD4+ T cells. The text has this:
IL-21 is a pro-inflammatory cytokine secreted by CD4^+ Th17 cells and is thought to serve as a T-cell growth factor playing overlapping roles with IL-2. This Example describes a study that measured the IC50 values of the indole compounds disclosed herein for suppressing IL-21 secretion from human CD4^+ T cells that had been treated with stimulatory conditions that gave rise to TH17 cells (see, e.g., Dobritsa et al., J Biomol Screen. 18(1):75-84 (2013)).
Human CD4^+ T cells were purchased from Lonza Walkersville Inc. (Walkersville, MD). DMSO was obtained from Sigma (St. Louis, MO). Greiner cell culture plates, Gibco DMEM cell culture medium, media supplements, and antibiotics, as well as DYNABEADS Human T-Activator CD3/CD28 and R&D Systems TGF-β, IL-1β and IL-23 and Invitrogen IL-6 cytokines, were purchased through Fisher Scientific (Pittsburgh, PA). ALPHALISA assay plates and the Human Interleukin-21 ALPHALISA kit was obtained from Perkin Elmer (Boston, MA).
Cell culture plates were pre-coated with test compounds in serial dilutions for generating a 10-point, 3-fold dose response curve with a top concentration of 1 μM or 100 nM. To do this, compounds were dissolved in DMSO and added to an ECHO qualified plate for transfer to the cell culture plate with the ECHO555. The indole compounds to be tested were dissolved in […] and wells were backfilled with DMSO so that all treatments received 0.1% DMSO final volume. Positive control (0% inhibition) wells, in which compounds were replaced with […], were included on each plate. At least 15×10^6 frozen CD4^+ T cells per plate of compounds were thawed in a 37° C. water bath, and the cells were washed twice with 10 mL of the complete medium (DMEM supplemented with 10% fetal bovine serum (FBS), 100 U/mL penicillin, and 100 μg/mL streptomycin), followed by centrifugation (250×g, 10 min). Cells were re-suspended to the desired density, and cultured in 384-well treated sterile cell culture plates in a total volume of 50 μL per well. Each plate included wells with induced and un-induced cells.
Induced cells were activated in the complete medium with DYNABEADS Human T-Activator CD3/CD28 at a bead-to-cell ratio of 1:2.5 and stimulated with the following cytokines: transforming growth factor-β (TGF-β, 5 ng/mL), IL-6 (20 ng/mL), IL-23 (20 ng/mL), and IL-1β (10 ng/mL).
Un-induced cells were left in complete medium with no additional supplements. Plates were incubated at 37° C., 5% CO2 for a total of 5 days. Upon completion of the 5 day incubation period, cells were spun down (1,000×g, 1 min) and supernatant was transferred to the ALPHALISA assay plate using the Mosquito HTS liquid handler (TTP Labtech Inc., Cambridge, MA).
IL-21 levels in cell supernatants and cell-free control samples were measured using the ALPHALISA assay kit from Perkin Elmer, following the manufacturer's instructions. The assay was run at room temperature in 384-well ALPHAPLATES (cat. 6005350; Boston, MA). Briefly, immediately after transferring the cell supernatant to the assay plate, anti-IL-21 acceptor beads were added with the CERTUS FLEX liquid handler (LEAP Technologies, Morrisville, NC). The plate was sealed, spun down and incubated for 30 minutes. After incubation, the seal was removed, anti-IL-21 biotinylated antibody was added with the CERTUS FLEX, and the plate was sealed again, spun down and incubated for 60 minutes. Next, the seal was removed, streptavidin-coated donor beads were added with the CERTUS FLEX, and the plate was sealed, spun down and incubated for another 60 minutes. Finally, the seal was removed and the plate was read using the ENVISION reader (Perkin Elmer, Boston, MA) set with an excitation filter of 680 nm and an emission filter of 615 nm. Two independent IL-21 standard dilution curves were run per plate with analyte provided in the ALPHALISA kit.
For estimation of the assay performance, Z′ values were calculated for each plate, comparing positive and negative controls. […]

The subject of data set [2] is CYP1A1 in mouse Hepal-6 cells. Nature of the data set: EROD assay (7-ethoxy-resorufin-O-deethylase), mouse Hepa1-6 cells. Format: cell-based. Conditions: for EC50: EROD assay, 20 hours treatment. As for the experimental part:
CYP1A1 induction is under the control of the AhR signaling pathway. This Example describes an in vitro assay (7-ethoxy-resorufin-O-deethylase (EROD) assay) that evaluated the AhR modulating activities of the indole compounds described herein. In this assay, the indole compounds were incubated with human HepG2 cells or mouse Hepal-6 cells. The activity of CYP1A1 in the cells was measured by the conversion of substrate 7-ethoxyresorufin, with the readout being a fluorescence signal associated with the conversion product. The EC50 values of the indole compounds as well as the maximum […] induced by them in the assay were determined.
Human HepG2 cells were obtained from Sigma Aldrich (Catalog 85011430-1VL). Mouse Hepal-6 cells also were obtained from Sigma Aldrich (Catalog 92110305-1V).
Human HepG2 and Mouse Hepal-6 cells were grown to 60-80% confluency in tissue culture flasks, lifted with non-enzymatic cell dissociation solution (cell stripper), seeded in a 384-well plate at 5,000 cells per well, treated with the test compounds, and incubated for 20 hours overnight at 37° C. The treatment medium was removed and a solution of substrate 7-ethoxyresorufin (ETX) was added to initiate the reaction. The plate was incubated at 37° C. for 30 minutes. The reaction was subsequently terminated by adding tempered methanol. Fluorescent emission was measured at 590 nm with excitation at 530 nm in a FLEXSTATION III instrument (Molecular Devices).

In data set [1], `Nc1nnc(-c2csc(C(=O)c3c[nH]c4ccc(F)cc34)n2)o1` [ARI-148, (4-(5-amino-1,3,4-oxadiazol-2-yl)thiazol-2-yl)(5-fluoro-1H-indol-3-yl)methanone] gave an IC50 of 5.9 nM.

Take `COC(=O)c1csc(C(=O)c2c[nH]c3ccc(F)cc23)n1` [ARI-066, methyl 2-(5-fluoro-1H-indole-3-carbonyl)thiazole-4-carboxylate]: the IC50 in data set [1] was found to be 48.6 nM. Moreover, the “activity in the mouse EROD assay, in words” value (“activity” for short) in data set [2] is given as “less active”.

`Nc1nnc(-c2csc(C(=O)c3c[nH]c4ccccc34)n2)s1` [ARI-090, (4-(5-amino-1,3,4-thiadiazol-2-yl)thiazol-2-yl)(1H-indol-3-yl)methanone] yielded an IC50 in data set [1] of 8.4 nM.

As for `Nc1nnc(-c2csc(C(=O)c3c[nH]c4c(F)cccc34)n2)o1` [ARI-118, (4-(5-amino-1,3,4-oxadiazol-2-yl)thiazol-2-yl)(7-fluoro-1H-indol-3-yl)methanone], in data set [1], it took 0.8 nM to reach half-maximal inhibition (IC50) and the “potency in suppressing IL-21 secretion, in words” value (“potency” below) is given as “most potent”. In data set [1] (IL-21 secretion assay), the “times more potent than ARI-087” value is “about 32 times”. In addition, in data set [2], the “activity” value is “most active among the tested oxadiazole compounds”.

For `Cc1noc(-c2csc(C(=O)c3c[nH]c4ccccc34)n2)n1` [ARI-031, (1H-indol-3-yl)(4-(3-methyl-1,2,4-oxadiazol-5-yl)thiazol-2-yl)methanone], in data set [1], half-maximal inhibition (IC50) required 42.6 nM and the “potency” value is reported as “among the least potent”.

Turning to `COC(=O)c1csc(C(=O)c2c[nH]c3ccccc23)n1` [ARI-001, ITE], in data set [1], 38.2 nM corresponded to half-maximal inhibition (IC50). The molecule also registered an EC50 in data set [2] of 64 nM.

Consider `NCc1nc(-c2csc(C(=O)c3c[nH]c4c(F)cccc34)n2)no1` [ARI-146, (4-(5-(aminomethyl)-1,2,4-oxadiazol-3-yl)thiazol-2-yl)(7-fluoro-1H-indol-3-yl)methanone], for which, in data set [1], the midpoint of inhibition, the IC50, lay at 13.4 nM. That is a double-digit nanomolar value.

`CNC(=O)c1csc(C(=O)c2c[nH]c3ccccc23)n1` [ARI-004]: in data set [1], half-maximal inhibition (IC50) was put at 231 nM and the “potency” value is on record as “weak activity”. Besides, in data set [2], the “activity” value is recorded as “less active”.

In data set [1], `COC(=O)c1csc(C(=O)c2c[nH]c3ccc(Cl)cc23)n1` [ARI-055, methyl 2-(5-chloro-1H-indole-3-carbonyl)thiazole-4-carboxylate] came in with an IC50 of 73.6 nM. For the same molecule, the “activity” value in data set [2] is recorded as “less active”.

For `CCC(=O)c1csc(C(=O)c2c[nH]c3ccc(F)cc23)n1` [ARI-087, 1-(2-(5-fluoro-1H-indole-3-carbonyl)thiazol-4-yl)propan-1-one], the IC50 in data set [1] turned out to be 25.4 nM. For the same molecule, the EC50 in data set [2] was 5.8 nM.

`Nc1nnc(-c2csc(C(=O)c3c[nH]c4cc(Cl)c(Cl)cc34)n2)o1` [ARI-120, (4-(5-amino-1,3,4-oxadiazol-2-yl)thiazol-2-yl)(5,6-dichloro-1H-indol-3-yl)methanone]: in data set [1], the IC50 was found to be 0.3 nM and the “potency” value was “most potent”. Besides, the “activity” value in data set [2] is on record as “most active among the tested oxadiazole compounds”.

In turn, `CCC(=O)c1csc(C(=O)c2c[nH]c3ccc(Cl)cc23)n1` [ARI-067, 1-(2-(5-chloro-1H-indole-3-carbonyl)thiazol-4-yl)propan-1-one] displayed an IC50 in data set [1] of 6.3 nM. In addition, in data set [2], the “activity” value is listed as “less active”.

`CCC(=O)c1csc(C(=O)c2c[nH]c3cc(F)ccc23)n1` [ARI-143, 1-(2-(6-fluoro-1H-indole-3-carbonyl)thiazol-4-yl)propan-1-one] gave an IC50 in data set [1] of 18.8 nM. Also, a half-maximal response in data set [2] (EC50) required 2.3 nM.

Molecule `CNC(=O)c1csc(C(=O)c2c[nH]c3ccc(F)cc23)n1` [ARI-065, 2-(5-fluoro-1H-indole-3-carbonyl)-N-methylthiazole-4-carboxamide] yielded an IC50 in data set [1] of 14 nM. The “activity” value in data set [2] is reported as “less active”.

In data set [1], `NCc1nnc(-c2csc(C(=O)c3c[nH]c4c(F)cccc34)n2)o1` [ARI-145, (4-(5-(aminomethyl)-1,3,4-oxadiazol-2-yl)thiazol-2-yl)(7-fluoro-1H-indol-3-yl)methanone] showed an IC50 of 46.9 nM. Moreover, the “activity” value in data set [2] is on record as “most active among the tested oxadiazole compounds”.

For the molecule `Cc1nnc(-c2csc(C(=O)c3c[nH]c4ccccc34)n2)o1` [ARI-060, (1H-indol-3-yl)(4-(5-methyl-1,3,4-oxadiazol-2-yl)thiazol-2-yl)methanone], in data set [1], the IC50 amounted to 110 nM and the “potency” value is recorded as “among the least potent”.

Take `Cc1nc(-c2csc(C(=O)c3c[nH]c4ccccc34)n2)no1` [ARI-030, (1H-indol-3-yl)(4-(5-methyl-1,2,4-oxadiazol-3-yl)thiazol-2-yl)methanone]: in data set [1], the IC50 was determined as 40 nM and the “potency” value is listed as “among the least potent”.

`CCC(=O)c1csc(C(=O)c2c[nH]c3c(F)cccc23)n1` [ARI-140, 1-(2-(7-fluoro-1H-indole-3-carbonyl)thiazol-4-yl)propan-1-one]: the IC50 in data set [1] was 8.6 nM. In data set [2], the “activity” value is listed as “less active than ARI-002” and the EC50 came to 19.5 nM.

Regarding `Nc1nnc(-c2csc(C(=O)c3c[nH]c4ccccc34)n2)o1` [ARI-083, (4-(5-amino-1,3,4-oxadiazol-2-yl)thiazol-2-yl)(1H-indol-3-yl)methanone], in data set [1], the IC50 is 0.3 nM and the “potency” value was “most potent”.

Consider `CCC(=O)c1csc(C(=O)c2c[nH]c3cc(F)c(F)cc23)n1` [ARI-149, 1-(2-(5,6-difluoro-1H-indole-3-carbonyl)thiazol-4-yl)propan-1-one], for which the IC50 in data set [1] was determined as 30.3 nM. Also, the EC50 in data set [2] stood at 0.6 nM.

For `CCC(=O)c1csc(C(=O)c2c[nH]c3cccc(F)c23)n1` [ARI-142, 1-(2-(4-fluoro-1H-indole-3-carbonyl)thiazol-4-yl)propan-1-one], in data set [1], half-maximal inhibition (IC50) required 209 nM and the “potency” value is on record as “least active in suppressing IL-21 secretion”. This molecule yielded an EC50 in data set [2] of 12.8 nM.

On to `O=C(c1nc(-c2nnco2)cs1)c1c[nH]c2ccccc12` [ARI-056, (4-(1,3,4-oxadiazol-2-yl)thiazol-2-yl)(1H-indol-3-yl)methanone], for which the midpoint of inhibition in data set [1], the IC50, lay at 4.9 nM.

`CNC(=O)c1csc(C(=O)c2c[nH]c3ccc(Cl)cc23)n1` [ARI-049, 2-(5-chloro-1H-indole-3-carbonyl)-N-methylthiazole-4-carboxamide]: half-maximal inhibition in data set [1] (IC50) required 10.1 nM. Also, the “activity” value in data set [2] is “less active”.
